Results from patent US7858657B2 (Proix Pharmaceutical Corp., priority 2004, dated 2010).
Values joined by “and” are separate entries in the source; they are usually repeats but may differ in a detail not shown here. Identical values can stand only once. Marks after values point to notes of the source that are not given here.

Legend:
HT-29 colon [1] = experiment: Antitumor activity of cytotoxic drugs alone or combined with PX-866, HT-29 colon (Table 2); assay type: in vivo; conditions: for Alone Growth delay days / Alone TGI % / Alone log cell kill: size 150 mm^3
HT-29 colon [2] = experiment: Antitumor activity of wortmannin analogs, HT-29 colon tumor (Table 1); assay type: in vivo; conditions: initial tumor vol 170 mm^3, 12 mg/kg/day ip Q1D × 9
p120γ = biological target: T1, p120γ (Homo sapiens, UniProt P48736); experiment: Inhibition of recombinant PtdIns-3-kinase, [32P]-ATP dependent phosphorylation of PtdIns; assay type: biochemical; conditions: recombinant enzyme
T1 construct: purchased Upstate (Charlottesville, Va.)
T1 sequence (P48736 whole entry): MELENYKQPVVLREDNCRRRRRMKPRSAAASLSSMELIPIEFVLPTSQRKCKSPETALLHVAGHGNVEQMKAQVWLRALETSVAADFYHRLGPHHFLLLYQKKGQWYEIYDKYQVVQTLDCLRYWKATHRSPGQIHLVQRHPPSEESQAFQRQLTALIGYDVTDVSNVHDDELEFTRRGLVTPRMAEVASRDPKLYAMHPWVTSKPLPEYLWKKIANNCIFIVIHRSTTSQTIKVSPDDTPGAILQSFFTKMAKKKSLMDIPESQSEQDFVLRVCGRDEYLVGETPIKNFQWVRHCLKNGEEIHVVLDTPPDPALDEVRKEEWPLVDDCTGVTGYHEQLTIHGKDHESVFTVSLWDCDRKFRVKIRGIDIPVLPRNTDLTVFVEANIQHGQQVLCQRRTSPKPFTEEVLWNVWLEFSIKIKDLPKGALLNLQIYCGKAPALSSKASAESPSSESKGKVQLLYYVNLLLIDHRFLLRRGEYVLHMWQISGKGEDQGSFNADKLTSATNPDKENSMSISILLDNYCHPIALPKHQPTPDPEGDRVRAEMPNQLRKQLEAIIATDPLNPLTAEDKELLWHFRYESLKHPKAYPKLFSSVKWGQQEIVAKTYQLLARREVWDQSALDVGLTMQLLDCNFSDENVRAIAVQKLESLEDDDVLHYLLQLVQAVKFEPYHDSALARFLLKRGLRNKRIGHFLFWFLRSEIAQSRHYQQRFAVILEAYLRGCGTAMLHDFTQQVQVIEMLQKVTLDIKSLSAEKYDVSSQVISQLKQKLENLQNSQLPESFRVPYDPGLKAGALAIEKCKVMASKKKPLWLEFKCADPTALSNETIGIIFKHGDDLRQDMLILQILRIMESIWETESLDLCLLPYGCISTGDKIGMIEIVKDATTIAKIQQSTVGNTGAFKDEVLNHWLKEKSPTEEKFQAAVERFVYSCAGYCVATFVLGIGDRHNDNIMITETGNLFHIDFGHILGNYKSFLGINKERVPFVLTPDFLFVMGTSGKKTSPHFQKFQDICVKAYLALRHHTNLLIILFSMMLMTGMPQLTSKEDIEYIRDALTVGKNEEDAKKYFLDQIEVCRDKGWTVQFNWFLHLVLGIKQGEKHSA
From the text: (§1) Materials and Methods. Compounds. […] Rabbit purified anti-phosphoSer473-Akt antibody, anti-Akt antibody, antiphospho Tyr1086-EGF-receptor antibody and anti-EGFR antibody were obtained from Cell Signaling Technology (Beverly, Mass.). Human recombinant p110α/p85α, p110β/p85α, p120 (and p110*/p85α PtdIns-3-kinases were obtained from Upstate (Charlottesville, Va.). Metformin hydrochloride was obtained from Spectrum Chemical (Gardena, Calif.), pioglitazone hydrochloride and recombinant human insulin from Sigma Chemical (St. Louis).
(§2) Measurement of PtdIns-3-kinase.

p110δ/p85α = biological target: T2, p110δ/p85α (Homo sapiens, UniProt O00329); experiment: as above; assay type: biochemical; conditions: recombinant enzyme
T2 construct: purchased Upstate (Charlottesville, Va.)
T2 sequence (O00329 whole entry): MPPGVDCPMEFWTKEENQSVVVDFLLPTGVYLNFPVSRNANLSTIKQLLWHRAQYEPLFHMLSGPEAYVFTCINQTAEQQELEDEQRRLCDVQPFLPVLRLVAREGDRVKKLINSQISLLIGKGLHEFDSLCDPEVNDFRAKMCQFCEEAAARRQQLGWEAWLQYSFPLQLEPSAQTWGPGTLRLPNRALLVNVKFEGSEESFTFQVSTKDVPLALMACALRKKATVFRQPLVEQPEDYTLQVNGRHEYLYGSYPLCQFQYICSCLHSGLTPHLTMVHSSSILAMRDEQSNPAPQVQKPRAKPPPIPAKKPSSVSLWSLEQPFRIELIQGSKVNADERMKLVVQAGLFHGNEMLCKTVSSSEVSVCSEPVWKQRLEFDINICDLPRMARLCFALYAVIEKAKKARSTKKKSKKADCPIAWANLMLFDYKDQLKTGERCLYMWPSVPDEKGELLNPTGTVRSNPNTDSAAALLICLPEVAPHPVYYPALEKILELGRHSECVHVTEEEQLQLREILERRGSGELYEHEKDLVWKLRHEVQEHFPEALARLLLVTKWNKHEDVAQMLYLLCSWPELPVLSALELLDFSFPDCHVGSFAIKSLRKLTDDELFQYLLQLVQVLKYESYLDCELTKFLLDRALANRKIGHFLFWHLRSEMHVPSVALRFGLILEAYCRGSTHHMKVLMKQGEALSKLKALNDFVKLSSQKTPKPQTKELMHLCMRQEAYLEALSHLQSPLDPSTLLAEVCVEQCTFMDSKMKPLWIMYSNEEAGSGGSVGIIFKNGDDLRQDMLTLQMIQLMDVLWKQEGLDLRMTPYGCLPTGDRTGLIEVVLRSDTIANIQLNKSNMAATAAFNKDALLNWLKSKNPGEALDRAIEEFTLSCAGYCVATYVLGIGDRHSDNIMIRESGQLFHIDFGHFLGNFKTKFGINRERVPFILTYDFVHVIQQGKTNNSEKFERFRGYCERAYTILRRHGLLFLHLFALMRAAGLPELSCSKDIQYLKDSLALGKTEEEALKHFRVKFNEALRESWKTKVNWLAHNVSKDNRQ
T2 sequence (P27986 whole entry partner): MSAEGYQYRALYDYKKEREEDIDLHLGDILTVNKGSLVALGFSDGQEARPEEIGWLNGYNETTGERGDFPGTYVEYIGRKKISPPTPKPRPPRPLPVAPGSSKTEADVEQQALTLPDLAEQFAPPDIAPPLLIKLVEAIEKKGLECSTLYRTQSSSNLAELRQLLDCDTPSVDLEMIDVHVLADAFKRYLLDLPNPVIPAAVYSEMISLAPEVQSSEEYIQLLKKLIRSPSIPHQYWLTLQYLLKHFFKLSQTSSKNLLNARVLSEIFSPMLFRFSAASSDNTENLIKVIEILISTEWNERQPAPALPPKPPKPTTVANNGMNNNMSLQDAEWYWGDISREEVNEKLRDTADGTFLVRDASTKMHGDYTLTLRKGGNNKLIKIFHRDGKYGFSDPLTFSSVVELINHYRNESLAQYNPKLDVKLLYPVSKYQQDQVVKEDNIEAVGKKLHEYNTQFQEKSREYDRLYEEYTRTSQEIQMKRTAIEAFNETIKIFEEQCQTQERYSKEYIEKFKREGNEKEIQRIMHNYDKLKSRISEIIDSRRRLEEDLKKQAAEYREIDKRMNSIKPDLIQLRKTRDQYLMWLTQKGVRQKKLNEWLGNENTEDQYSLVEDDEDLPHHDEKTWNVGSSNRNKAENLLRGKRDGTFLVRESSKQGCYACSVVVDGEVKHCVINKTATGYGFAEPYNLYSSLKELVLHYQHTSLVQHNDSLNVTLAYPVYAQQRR
From the text: as §1, §2

p110β/p85α = biological target: T3, p110β/p85α (Homo sapiens, UniProt P42338); experiment: as above; assay type: biochemical; conditions: recombinant enzyme
T3 construct: purchased Upstate (Charlottesville, Va.)
T3 sequence (P42338 whole entry): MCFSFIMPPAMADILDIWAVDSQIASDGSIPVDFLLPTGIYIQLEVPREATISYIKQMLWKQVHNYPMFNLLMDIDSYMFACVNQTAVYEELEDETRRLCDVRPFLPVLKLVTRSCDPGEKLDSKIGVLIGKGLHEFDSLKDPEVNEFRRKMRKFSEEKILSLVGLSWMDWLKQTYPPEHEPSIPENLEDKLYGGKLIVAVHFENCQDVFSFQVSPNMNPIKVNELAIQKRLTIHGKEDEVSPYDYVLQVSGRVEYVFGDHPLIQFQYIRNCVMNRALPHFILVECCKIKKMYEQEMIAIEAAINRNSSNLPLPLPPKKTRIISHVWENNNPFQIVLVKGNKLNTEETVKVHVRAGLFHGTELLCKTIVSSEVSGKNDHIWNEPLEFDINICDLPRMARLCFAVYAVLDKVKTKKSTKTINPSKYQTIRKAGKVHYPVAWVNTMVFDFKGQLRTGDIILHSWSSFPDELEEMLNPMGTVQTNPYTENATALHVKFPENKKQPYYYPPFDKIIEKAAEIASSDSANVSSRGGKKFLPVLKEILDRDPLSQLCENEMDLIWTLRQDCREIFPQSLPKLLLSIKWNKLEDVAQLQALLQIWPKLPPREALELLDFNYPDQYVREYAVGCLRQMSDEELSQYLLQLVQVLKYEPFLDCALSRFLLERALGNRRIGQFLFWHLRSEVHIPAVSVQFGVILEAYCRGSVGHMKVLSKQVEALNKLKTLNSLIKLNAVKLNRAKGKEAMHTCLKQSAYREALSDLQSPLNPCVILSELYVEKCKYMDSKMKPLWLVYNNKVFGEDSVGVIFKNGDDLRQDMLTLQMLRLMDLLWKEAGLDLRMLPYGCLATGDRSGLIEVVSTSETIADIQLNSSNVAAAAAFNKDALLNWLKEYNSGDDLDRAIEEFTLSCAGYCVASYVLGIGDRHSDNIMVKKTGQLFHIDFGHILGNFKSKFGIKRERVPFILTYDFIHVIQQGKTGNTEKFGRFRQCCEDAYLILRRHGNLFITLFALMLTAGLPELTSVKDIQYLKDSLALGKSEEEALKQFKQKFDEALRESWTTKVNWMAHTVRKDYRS
T3 sequence (P27986 whole entry partner): as the sequence (P27986 whole entry partner) above
From the text: as §1, §2

[3] = system: HT-29 xenograft phosphor-Akt; experiment: Inhibition of HT-29 xenograft phospho-Akt by wortmannin analogs (pharmacodynamics); assay type: in vivo
Procedure: The pharmacodynamics of various wortmannin analogs were tested. […] PX-866 was administered intraperitoneal, intravenously and orally.

[4] = Plasma insulin levels after PX-866; assay type: in vivo, C57B1/6 mice; conditions: PX-866 single dose of 10 mg/kg po (FIG. 10)
From the text: PX-866 and glucose tolerance.

[5] = Glucose tolerance studies; conditions: mean ± SE of 4 mice
Procedure: Glucose Tolerance Studies. Female C5781/6 mice were fasted overnight and administered a single dose of D(+) glucose (1 mg/kg) as a 0.1 g/ml solution po. […] Human recombinant insulin was administered at 0.075:g/kg ip (26) at the same time as glucose administration.
Values are the mean±SE of 4 mice per group.

A-549 lung [6] = experiment: Antitumor activity of wortmannin analogs, A-549 lung tumor (Table 1); assay type: in vivo
[7] = Nonfasting glucose levels after long term PX-866; assay type: in vivo, mice; conditions: PX-866 9 mg/kg iv every other day for 15 doses; ±S.E., n=4
[8] = system: A-673 thabdomyosarcom xenografts; experiment: Antitumor effect of PX-866 with bevacizumab, A-673 xenografts; assay type: in vivo; conditions: PX-866 intravenously or orally every three days in combination with bevacizumab (FIG. 14)
Procedure: PX-866 was administered at varying doses intravenously or orally every three days alone or in combination with bevacizumab.

[9] = system: A-549 human nsc lung cancer xenografts; experiment: Antitumor studies, PX-866 and gefitinib in A-549 xenografts; assay type: in vivo, scid mice; conditions: for Tumor T/C %, PX-844 4 hrs before gefitinib / Tumor T/C %: 100 mm3 tumors; for Tumor T/C %: end of dosing period
Procedure: Antitumor Studies. […] When the tumors reached 100 or 600 mm3 the mice were stratified into groups of 8 animals having approximately equal mean tumor volumes and drug administration was started. […] Animals were weighed weekly and tumor diameters were measured twice weekly at right angles (d short and d long) with electronic calipers and tumor volumes calculated by the formula volume=(dshort)2×(dlong))2. When the tumor reached 2,000 mm3 or more, or became necrotic the animals were euthanized.
In vivo antitumor studies. […] Tumors were allowed to grow to a mean volume of […] before drug treatment was started every other day for 14 doses. Antitumor activity is expressed as the % volume of the treated tumor/control tumor (T/C %) at the end of the dosing period. There were 8 mice in each group and all differences are p<0.01.

HT-29 colon cancer = experiment: Antitumor activity of PX-866 with gefitinib in HT-29 colon cancer; assay type: in vivo; conditions: PX-866 2 mg/kg orally 4 hours prior to gefitinib 75 mg/kg po (FIG. 13)
Panc-1 pancreatic = experiment: Antitumor activity of cytotoxic drugs alone or combined with PX-866, Panc-1 pancreatic (Table 2); assay type: in vivo; conditions: for Alone Growth delay days / Alone TGI % / Alone log cell kill: size 75 mm^3
A-549 lung [10] = experiment: Antitumor activity of cytotoxic drugs alone or combined with PX-866, A-549 lung (Table 2); assay type: in vivo
[11] = PX-866 iv 10 mg/kg Q2D × 3 combined with cisplatin ip 2.5 mg/kg Q2D × 3
[12] = PX-866 po 2.5 mg/kg Q2D × 3 combined with cisplatin ip 2.5 mg/kg Q2D × 3
[13] = initial tumor vol 60 mm^3, 4 mg/kg/day po Q1D × 9
[14] = initial tumor vol 60 mm^3, 12 mg/kg/day iv Q1D × 9
[15] = initial tumor vol 65 mm^3, 6 mg/kg/day ip Q1D × 9
[16] = initial tumor vol 65 mm^3, 9 mg/kg/day ip Q1D × 9
[17] = PX-866 iv 15 mg/kg Q3D × 3 combined with gemcitabine ip 150 mg/kg Q3D × 3
[18] = PX-866 po 5 mg/kg Q3D × 3 combined with gemcitabine ip 150 mg/kg Q3D × 3
[19] = PX-866 ip 6 mg/kg QD × 5 combined with cisplatin ip 1 mg/kg QD × 5
[20] = size 300 mm^3, PX-866 ip 6 mg/kg QD × 5

C=CCN(/C=C1/C(=O)O[C@H](COC)[C@@]2(C)C1=C(O)C(=O)C1=C2[C@H](OC(C)=O)C[C@]2(C)C(=O)CC[C@@H]12)CC=C [PX-866]
Combined Growth delay days (HT-29 colon [1]; [11]): 6 days
Combined TGI % (HT-29 colon [1]; [11]): 56%
Combined log cell kill (HT-29 colon [1]; [11]): 0.5
Combined Growth delay days (HT-29 colon [1]; [12]): 8 days
Combined TGI % (HT-29 colon [1]; [12]): 63%
Combined log cell kill (HT-29 colon [1]; [12]): 0.7
Alone Growth delay days (HT-29 colon [1]; PX-866 iv 10 mg/kg Q2D × 3): 0 days
Alone TGI % (HT-29 colon [1]; PX-866 iv 10 mg/kg Q2D × 3): 11%
Alone log cell kill (HT-29 colon [1]; PX-866 iv 10 mg/kg Q2D × 3): 0.3
Alone Growth delay days (HT-29 colon [1]; PX-866 po 2.5 mg/kg Q2D × 3): 1 days
Alone TGI % (HT-29 colon [1]; PX-866 po 2.5 mg/kg Q2D × 3): 29%
Alone log cell kill (HT-29 colon [1]; PX-866 po 2.5 mg/kg Q2D × 3): 0.1
Growth Delay (HT-29 colon [2]): 6 days
Log10 cell kill (HT-29 colon [2]): 0.4
T/C % (optimal test/control) (HT-29 colon [2]; day 16): 39 (16) %
IC50 (p120γ): 9 nM
IC50 (p110δ/p85α): 2.7 nM
IC50 (p110β/p85α): > 300 nM
inhibition of HT-29 xenograft phosphor-Akt ([3]; dose dependency, PX-866, PX-867 and PX-881 compared (FIG. 1A)): greatest inhibitory activity
inhibition of HT-29 xenograft phosphor-Akt over time by route ([3]; oral compared with intraperitoneal and intravenous (FIG. 1B)): more consistent inhibition over a longer period of time
duration of increase in plasma insulin levels [4]: up to 5 hr
plasma glucose AUC0-180 min ([5]; PX-866 3 mg/kg po QOD × 20, glucose 24 hours after the last dose): 520 ± 14^a mg · min · ml^−1
plasma glucose AUC0-180 min ([5]; PX-866 10 mg/kg po single dose, glucose 4 hours later, no other drug): 533 ± 17^a mg · min · ml^−1
Growth Delay (A-549 lung [6]; [13]): 6 days
Log10 cell kill (A-549 lung [6]; [13]): 0.9
T/C % (optimal test/control) (A-549 lung [6]; initial tumor vol 60 mm^3, 4 mg/kg/day po Q1D × 9, day 21): 47 (21) %
Growth Delay (A-549 lung [6]; [14]): 5 days
Log10 cell kill (A-549 lung [6]; [14]): 0.7
T/C % (optimal test/control) (A-549 lung [6]; initial tumor vol 60 mm^3, 12 mg/kg/day iv Q1D × 9, day 21): 45 (21) %
Growth Delay (A-549 lung [6]; [15]): 4 days
Log10 cell kill (A-549 lung [6]; [15]): 0.2
T/C % (optimal test/control) (A-549 lung [6]; initial tumor vol 65 mm^3, 6 mg/kg/day ip Q1D × 9, day 32): 62 (32) %
Growth Delay (A-549 lung [6]; [16]): 8 days
Log10 cell kill (A-549 lung [6]; [16]): 0.4
T/C % (optimal test/control) (A-549 lung [6]; initial tumor vol 65 mm^3, 9 mg/kg/day ip Q1D × 9, day 32): 26 (32) %
nonfasting glucose levels [7]: 269.4 ± 27.8 mg/dL
antitumor activity with bevacizumab [8]: significantly increased the antitumor activity of bevacizumab
Tumor T/C %, PX-844 4 hrs before gefitinib ([9]; PX-866 IV 4 mg/kg QOD × 14, 4 hr before gefitinib 75 mg/kg po): 20.5%
Tumor T/C % ([9]; PX-866 IV 4 mg/kg QOD × 14 alone): 65.3%
Tumor T/C %, PX-844 4 hrs before gefitinib ([9]; PX-866 IV 9 mg/kg QOD × 14, 4 hr before gefitinib 75 mg/kg po): 22% and 22.3%
Tumor T/C % ([9]; PX-866 IV 9 mg/kg QOD × 14 alone, 9 mg/kg): 31% and 31.5%
Tumor T/C %, PX-844 4 hrs before gefitinib ([9]; PX-866 PO 1 mg/kg QOD × 14, 4 hr before gefitinib 75 mg/kg po): 40.8%
Tumor T/C % ([9]; PX-866 PO 1 mg/kg QOD × 14 alone): 54.8%
Tumor T/C %, PX-844 4 hrs before gefitinib ([9]; PX-866 PO 2.5 mg/kg QOD × 14, 4 hr before gefitinib 75 mg/kg po): 18% and 18.1%
Tumor T/C % ([9]; PX-866 PO 2.5 mg/kg QOD × 14 alone, 2.5 mg/kg): 41% and 40.8%
combination antitumor activity, large tumors ([9]; PX-866 with gefitinib, 600 mm3 A-549 tumor xenografts (FIG. 7B)): Increased combination antitumor activity
tumor T/Cs ([9]; administered long term, single agent (discussion)): around 50%
activity of combination with gefitinib by timing ([9]; alternating day schedule, preliminary studies, data not shown): more active when administered 4 hr before rather than 24 hr after gefitinib
antitumor effect with gefitinib (HT-29 colon cancer): increased the antitumor effect of gefitinib
Combined Growth delay days (Panc-1 pancreatic; [17]): 8 days
Combined TGI % (Panc-1 pancreatic; [17]): 49%
Combined log cell kill (Panc-1 pancreatic; [17]): 0.2
Combined Growth delay days (Panc-1 pancreatic; [18]): 19 days
Combined TGI % (Panc-1 pancreatic; [18]): 60%
Combined log cell kill (Panc-1 pancreatic; [18]): 0.5
Alone Growth delay days (Panc-1 pancreatic; PX-866 iv 15 mg/kg Q3D × 3): 4 days
Alone TGI % (Panc-1 pancreatic; PX-866 iv 15 mg/kg Q3D × 3): 16%
Alone log cell kill (Panc-1 pancreatic; PX-866 iv 15 mg/kg Q3D × 3): 0.1
Alone Growth delay days (Panc-1 pancreatic; PX-866 po 5 mg/kg Q3D × 3): 0 days
Alone TGI % (Panc-1 pancreatic; PX-866 po 5 mg/kg Q3D × 3): 14%
Alone log cell kill (Panc-1 pancreatic; PX-866 po 5 mg/kg Q3D × 3): 0
Combined Growth delay days (A-549 lung [10]; [19]): 10 days
Combined TGI % (A-549 lung [10]; [19]): 58%
Combined log cell kill (A-549 lung [10]; [19]): 1.0
Alone Growth delay days (A-549 lung [10]; [20]): 3 days
Alone TGI % (A-549 lung [10]; [20]): 27%
Alone log cell kill (A-549 lung [10]; [20]): 0.30
